Patent US20040120949A1, “Compositions and methods for treating cancer using cytotoxic CD44 antibody immunoconjugates and radiotherapy” (Boehringer Ingelheim International GmbH, priority 2002, published 2004)
“And” between values parts separate entries of the source, which are not always exact repeats. Equal values may be shown once.

Legend:
[1] = tested on: cells in vitro; settings: free drug; cited from earlier work
[2] = tested on: human FaDu SCC; assay: Tumor growth delay and local control of FaDu tumors in nude mice, drug alone or with fractionated irradiation; type: in vivo, NMRI (nu/nu) mice; settings: for Growth delay to 5 times the starting volume (tν5) / Growth delay to 10 times the starting volume (tV10): median
Protocol: (§1) BIWI 1, BIWA 4 and phosphate buffered saline (PBS) were applied intravenously (i.v.) in one of the tail veins. BIWI 1 was applied in doses of 50 μg and 100 μg DM1/kg body weight (b.w.)/d. Control animals were treated either with BIWA 4 (antibody control, 7 mg/kg b. w./d) or PBS.
(§2) Animals: The experiments were performed using 7-14 week old male and female NMRI (nu/nu) mice from the specific pathogen-free animal breeding facility of the Experimental Center of the Medical Faculty of the University of Dresden. The animal facilities and the experiments were approved according to the German animal welfare regulations. The microbiological status of the animals was regularly checked by the veterinarians of the facility. The animal rooms provided day light plus a 12 h light-12 h dark electric cycle (light-on time 07.00 a.m.) and a constant temperature of 26° C. and relative humidity of 50-60%. The animals were fed a commercial laboratory animal diet and water ad libitum. To immunosuppress the nude mice further, they were whole-body irradiated 2 days before tumor transplantation with 4 Gy using 200 kV X-rays (0.5 mm Cu) at a dose rate of about 1 Gy/min.
Tumor: FaDu is an established human hypopharyngeal squamous cell carcinoma line, kept in high passage by the American Type Culture Collection (Rockville, Md.). In nude mice FaDu grows as an undifferentiated carcinoma with a volume doubling time (VDT) between 100 mm^3 and 400 mm^3 of about 4 days. […] For the experiments small tumor pieces were transplanted subcutaneously (s.c.) into the right hindleg of anaesthetised mice.
(§3) Combination of BIWI 1 with fractionated irradiation: Local irradiations were given under ambient conditions without anaesthesia to air breathing animals (200 kV X-rays, 0.5 mm Cu, at a dose rate of 1.1 Gy/min). Up to five animals were irradiated simultaneously in specially designed jigs. For the treatments, the mice were immobilised in a plastic tube fixed on a lucite plate. The tumor-bearing leg was held positioned in the irradiation field by a foot-holder distal to the tumor. Tumor volume at the start of irradiation were around 100 mm^3. Tumors were irradiated with 5 fractions of 4 Gy in 5 days. The animals were randomized over the experimental matrix in groups of 5, aiming for about 15 animals (range 14 to 15 animals) for each treatment group. Irradiation protocols were started every second day. Animals received either BIWI 1 (50 μg DM1/kg/d), BIWI 1 (100 μg DM1/kg/d), BIWA 4 (7 mg/kg/d) or PBS two hours after each irradiation for 5 consecutive days. The report includes data obtained from a total of 59 irradiated tumors. In addition, 57 unirradiated FaDu tumors were treated with BIWI 1 (50 μg/kg/d), BIWI 1 (100 μg/kg/d), BIWA 4 (7 mg/kg/d) or PBS for 5 consecutive days.
Determinations of tumor volume and tumor growth delay: Animals were observed until the mean diameter of the untreated or recurrent tumors exceeded 12-15 mm, until death or until day 120 after end of treatment. Animals that appeared to suffer were killed before reaching these endpoints. Tumor diameters were measured every second day. Tumor volumes were determined by the formula of a rotational ellipsoid π/6×a×b^2, where a is the longest and b is the perpendicular shorter tumor axis. Conversion of tumor volumes to tumor mass (mg) was performed by a calibration curve based on excision weights. Tumor growth delay was determined from individual growth curves as the time that a regrowing tumor needed to reach 5 and 10 times the start volume (tv5, tv10).
Statistics: Medians and 95% confidence intervals (CI) of the tumor growth delay were calculated according to Sachs (Angewandte Statistik, 7. Aufl., Springer 1992). Experimental groups were compared using the Mann-Whitney-U test and a commercial software package (SPSS for Windows 9.0, SPSS Inc., 1999).

[3] = Biodistribution and tumor uptake in vivo
[4] = tested on: CD44v6; assay: Antigen binding affinity of humanised VFF-18 versions; set-up: species or system human
Sequence of CD44v6 (P16070 386-428 limits assumed): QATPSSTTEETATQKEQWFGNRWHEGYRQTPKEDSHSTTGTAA

[5] = Tolerability in tumor-bearing nude mice; type: in vivo
Protocol: as §1, §2, §3

[6] = tested on: antigen-positive FaDu cells; assay: In vitro binding to FaDu cells by FACS; settings: on ice 1 hour, FITC-labeled anti-human IgG, read-out: apparent KD
Protocol: The binding of BIWA 4 antibody and BIWI 1 conjugate to antigen-positive FaDu cells was determined. Cells (1−2×10^−5) were incubated in 96-well plates with varying concentrations of antibody or conjugate on ice for 1 hour. The test article was washed from the plate and FITC-labeled anti-human IgG was added and the incubation on ice was continued in the dark for 1 hour. After washing, the cells were fixed with 1% paraformaldehyde and analyzed on a fluorescence activated cell sorter (FACS).

[7] = biological target: CD44v6 on antigen-positive FaDu cells (human) (UniProt P16070); assay: flow cytometry (FACS) on antigen-positive FaDu cells, FITC-labeled anti-human IgG detection; apparent KD
[8] = BIWA 4 7 mg/kg/d + fractionated irradiation
[9] = BIWA 4 7 mg/kg/d i.v. x5 days, no irradiation
[10] = BIWA 4 7 mg/kg/d x5 days + fRT (5x4 Gy)
[11] = 50 μg DM1/kg b.w./d alone, no irradiation
[12] = 50 μg DM1/kg/d + fractionated irradiation
[13] = 50 ug DM1/kg/d i.v. x5 days, no irradiation
[14] = 50 ug DM1/kg/d x5 days + fRT (5x4 Gy)
[15] = 100 ug DM1/kg/d i.v. x5 days, no irradiation
[16] = 100 ug DM1/kg/d x5 days + fRT (5x4 Gy)

COc1cc2cc(c1Cl)N(C)C(=O)C[C@H](OC(=O)[C@H](C)N(C)C(=O)CCS)[C@]1(C)O[C@H]1[C@H](C)[C@@H]1C[C@@](O)(NC(=O)O1)[C@H](OC)/C=C/C=C(\C)C2 [DM1, N^2′-deacetyl-N^2′-(3-mercapto-1-oxopropyl)-Maytansine]
concentration toxic to cells in vitro [1]: approximately 10^−10 M

BIWA 4: Humanised version of antibody VFF-18, CD44v6 specific; light chains SEQ ID NO:4, heavy chains SEQ ID NO:6
Local tumor control rate at day 120 [2, 8]: 0/14 | estimated dose modifying factor [2, 8]: 1.2 | Growth delay compared with irradiated controls ([2]; BIWA 4 7 mg/kg/d + irradiation 20 Gy in 5 fractions): slightly but significant longer growth delay | Tumor growth compared with control tumors treated with PBS ([2]; BIWA 4 7 mg/kg/d alone, no irradiation): did not alter tumor growth | Growth delay to 5 times the starting volume (tν5) [2, 9]: 10,8 d | Growth delay to 10 times the starting volume (tV10) [2, 9]: 16.0 days | Growth delay to 5 times the starting volume (tν5) [2, 10]: 30.5 days | Growth delay to 10 times the starting volume (tV10) [2, 10]: 40.0 days | Biodistribution and tumor uptake in vivo [3]: very favorable biodistribution and tumor uptake in vivo | Antigen binding affinity (comparative) [4]: significantly lower antigen binding affinity as its parent antibody VFF-18 | Toxicity observed after application ([5]; i.v. x5 days): No toxicity was observed | Body weight during the treatment ([5]; irradiated and unirradiated animals, versus PBS group): minor and temporary changes without significant differences | Kd [6]: 1 nM

BIWI 1
tv5 and tv10 compared with irradiated tumors which received PBS or BIWA 4 ([2]; 50 μg DM1/kg b.w./d + irradiation 20 Gy in 5 fractions): clear-cut longer | tv5 compared with controls [2, 11]: did not prolong | tv10 compared with controls [2, 11]: slightly but significant longer | Effect of combined treatment with fractionated irradiation (radiosensitizing efficacy) [2, 12]: supra-additive | Local tumor control rate at day 120 [2, 12]: 7 out of 15 | estimated dose modifying factor [2, 12]: 4.1 | Local tumor control rate at day 120 ([2]; 50 μg DM1/kg/d + fractionated irradiation, listed as BIWI1): 7/15 | Growth delay to 5 times the starting volume (tν5) [2, 13]: 13.5 days | Growth delay to 10 times the starting volume (tV10) [2, 13]: 26.0 days | Growth delay to 5 times the starting volume (tν5) [2, 14]: 107.5 days | Growth delay to 10 times the starting volume (tV10) [2, 14]: >120 days | tv5 and tv10 compared with irradiated tumors which received PBS or BIWA 4 ([2]; 100 μg DM1/kg b.w./d + irradiation 20 Gy in 5 fractions): significant longer | Tv5 and tv10 compared to controls ([2]; 100 μg DM1/kg b.w./d alone, no irradiation): substantially and significantly prolonged | estimated dose modifying factor ([2]; 100 μg DM1/kg/d + fractionated irradiation): > 4.5 | Local tumor control rate at day 120 ([2]; 100 μg DM1/kg/d + fractionated irradiation, 4 further controlled animals censored earlier): 6 out of 15 and 6/15 | Growth delay to 5 times the starting volume (tν5) [2, 15]: 27.5 days | Growth delay to 10 times the starting volume (tV10) [2, 15]: 33.5 days | Growth delay to 5 times the starting volume (tν5) [2, 16]: >120 days | Growth delay to 10 times the starting volume (tV10) [2, 16]: >120 days | estimated kill of clonogenic FaDu cells ([2]; 5x 100 μg DM1/kg/d alone): at least two logs | Toxicity observed after application ([5]; i.v. x5 days): No toxicity was observed | Tolerability ([5]; i.v. x5 days, irradiated and unirradiated animals): well tolerated | Body weight during the treatment ([5]; mouse, in vivo): minor and temporary changes without significant differences | Kd [6]: 1.8 nM

B1: BIWA 4 (antibody, human IgG1, kappa, V domains shown)
VH: EVQLVESGGGLVKPGGSLRLSCAASGFTFSSYDMSWVRQAPGKGLEWVSTISSGGSYTYYLDSIKGRFTISRDNAKNSLYLQMNSLRAEDTAVYYCARQGLDYWGRGTLVTVSS
VL: EIVLTQSPATLSLSPGERATLSCSASSSINYIYWYQQKPGQAPRLLIYLTSNLASGVPARFSGSGSGTDFTLTISSLEPEDFAVYYCLQWSSNPLTFGGGTKVEIKR
Kd [7]: 1 nM

B2: BIWI 1 (antibody, V domains shown)
VH: EVQLVESGGGLVKPGGSLRLSCAASGFTFSSYDMSWVRQAPGKGLEWVSTISSGGSYTYYLDSIKGRFTISRDNAKNSLYLQMNSLRAEDTAVYYCARQGLDYWGRGTLVTVSS
VL: EIVLTQSPATLSLSPGERATLSCSASSSINYIYWYQQKPGQAPRLLIYLTSNLASGVPARFSGSGSGTDFTLTISSLEPEDFAVYYCLQWSSNPLTFGGGTKVEIKR
modifications: maytansinoid DM1 linked by a disulfide bond through the SPP-derived thiopentanoate linker to amino functions of the antibody; DM1/MAb ratio 3.1 (average for the whole antibody; sites not stated)
Kd [7]: 1.8 nM
